Measured values as given in PubChem BioAssay AID1963960 (Molecular Pharmacology Branch, DTP, NCI, 2024).
Where “and” joins values, the source holds several entries; their conditions need not be identical. Equal values may be shown once.

Tested on: MDA-MB-468 spheroids with HUVEC/MSC, viability
Assay: Anticancer human tumor MDA-MB-468 cell line growth inhibition [PI3K];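 further: spheroids exposed to agents for seven days before readout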;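 on viability, T/C: 100% = DMSO vehicle control viability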
Conditions: for viability, T/C: stronger effect = lower value
In short: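 High-throughput combination screen: PI3K inhibitors crossed with targeted small molecules on complex spheroids of tumor cells, HUVEC and MSCs at 37 degrees C, 5% CO2. Top concentration was at or near clinical Cmax (otherwise 10 microM), with half-log decrements.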

[1] = curve of first compound, second compound 0.00316 µM
[2] = curve of first compound, second compound 0.01 µM
[3] = curve of first compound, second compound 0.0316 µM
[4] = curve of first compound, second compound 0.1 µM
[5] = curve of first compound, second compound 0.316 µM
[6] = curve of first compound, second compound 1 µM
[7] = second compound 0.00316 µM, first compound 0.0316 µM
[8] = second compound 0.00316 µM, first compound 0.1 µM
[9] = second compound 0.00316 µM, first compound 0.316 µM
[10] = second compound 0.00316 µM, first compound 1 µM
[11] = second compound 0.00316 µM, first compound 3.16 µM
[12] = second compound 0.00316 µM, first compound 10 µM
[13] = second compound 0.01 µM, first compound 0.0316 µM
[14] = second compound 0.01 µM, first compound 0.1 µM
[15] = second compound 0.01 µM, first compound 0.316 µM
[16] = second compound 0.01 µM, first compound 1 µM
[17] = second compound 0.01 µM, first compound 3.16 µM
[18] = second compound 0.01 µM, first compound 10 µM
[19] = second compound 0.0316 µM, first compound 0.0316 µM
[20] = second compound 0.0316 µM, first compound 0.1 µM
[21] = second compound 0.0316 µM, first compound 0.316 µM
[22] = second compound 0.0316 µM, first compound 1 µM
[23] = second compound 0.0316 µM, first compound 3.16 µM
[24] = second compound 0.0316 µM, first compound 10 µM
[25] = second compound 0.1 µM, first compound 0.0316 µM
[26] = second compound 0.1 µM, first compound 0.1 µM
[27] = second compound 0.1 µM, first compound 0.316 µM
[28] = second compound 0.1 µM, first compound 1 µM
[29] = second compound 0.1 µM, first compound 3.16 µM
[30] = second compound 0.1 µM, first compound 10 µM
[31] = second compound 0.316 µM, first compound 0.0316 µM
[32] = second compound 0.316 µM, first compound 0.1 µM
[33] = second compound 0.316 µM, first compound 0.316 µM
[34] = second compound 0.316 µM, first compound 1 µM
[35] = second compound 0.316 µM, first compound 3.16 µM
[36] = second compound 0.316 µM, first compound 10 µM
[37] = second compound 1 µM, first compound 0.0316 µM
[38] = second compound 1 µM, first compound 0.1 µM
[39] = second compound 1 µM, first compound 0.316 µM
[40] = second compound 1 µM, first compound 1 µM
[41] = second compound 1 µM, first compound 3.16 µM
[42] = second compound 1 µM, first compound 10 µM

Structure (SMILES): C#Cc1c(F)ccc2cc(O)cc(-c3ncc4c(N5CC6CCC(C5)N6)nc(OCC56CCCN5CC(F)C6)nc4c3F)c12 (centres undefined)
- viability, T/C (compound 0.0316 µM): 81.9% [middle of 4 runs]
- viability, T/C (compound 0.1 µM): 92.6% [middle of 4 runs]
- viability, T/C (compound 0.316 µM): 92.2% [middle of 4 runs]
- viability, T/C (compound 1 µM): 100% [middle of 4 runs]
- viability, T/C (compound 10 µM): 55.1% [middle of 4 runs]
- IC50 (curve of compound): > 10 µM and 9.96 µM

Structure (SMILES): C#Cc1c(F)ccc2cc(O)cc(-c3ncc4c(N5CC6CCC(C5)N6)nc(OCC56CCCN5CC(F)C6)nc4c3F)c12 (centres undefined) + COc1c(OCCCN2CCOCC2)ccc2c3n(c(=NC(=O)c4cnc(N)nc4)nc12)CCN3
- IC50 [1]: > 10 µM
- IC50 [2]: > 10 µM
- IC50 [3]: 7.83 µM
- IC50 [4]: 3.67 µM
- IC50 [5]: < 0.0316 µM
- IC50 [6]: < 0.0316 µM
- viability, T/C [7]: 89.4%
- viability, T/C [8]: 82.8%
- viability, T/C [9]: 96.7%
- viability, T/C [10]: 96.8%
- viability, T/C [11]: 84.5%
- viability, T/C [12]: 56.9%
- viability, T/C [13]: 72.7%
- viability, T/C [14]: 91.3%
- viability, T/C [15]: 87%
- viability, T/C [16]: 87%
- viability, T/C [17]: 77.7%
- viability, T/C [18]: 61%
- viability, T/C [19]: 76.5%
- viability, T/C [20]: 68.8%
- viability, T/C [21]: 74.2%
- viability, T/C [22]: 83.9%
- viability, T/C [23]: 72.4%
- viability, T/C [24]: 43.7%
- viability, T/C [25]: 53.9%
- viability, T/C [26]: 52%
- viability, T/C [27]: 61.3%
- viability, T/C [28]: 61.8%
- viability, T/C [29]: 52.8%
- viability, T/C [30]: 24.6%
- viability, T/C [31]: 25.1%
- viability, T/C [32]: 23%
- viability, T/C [33]: 25.9%
- viability, T/C [34]: 27.2%
- viability, T/C [35]: 20.1%
- viability, T/C [36]: 6.75%
- viability, T/C [37]: 2.58%
- viability, T/C [38]: 2.36%
- viability, T/C [39]: 2.21%
- viability, T/C [40]: 2.61%
- viability, T/C [41]: 1.99%
- viability, T/C [42]: 0.74%

Structure (SMILES): CCCS(=O)(=O)Nc1ccc(F)c(C(=O)c2c[nH]c3ncc(-c4ccc(Cl)cc4)cc23)c1F + CC(Nc1ccc2c(c1)OCCn1cc(N3C(=O)OCC3C(F)F)nc1-2)C(N)=O
- IC50 [1]: 5.33 µM
- IC50 [2]: 5.16 µM
- IC50 [3]: 5.07 µM
- IC50 [4]: 4.53 µM
- IC50 [5]: 3.62 µM
- IC50 [6]: 3.72 µM
- viability, T/C [7]: 89.1%
- viability, T/C [8]: 114%
- viability, T/C [9]: 100%
- viability, T/C [10]: 94.4%
- viability, T/C [11]: 78.9%
- viability, T/C [12]: 15.6%
- viability, T/C [13]: 101%
- viability, T/C [14]: 90%
- viability, T/C [15]: 90.6%
- viability, T/C [16]: 104%
- viability, T/C [17]: 74.8%
- viability, T/C [18]: 16.4%
- viability, T/C [19]: 106%
- viability, T/C [20]: 98.7%
- viability, T/C [21]: 86.8%
- viability, T/C [22]: 103%
- viability, T/C [23]: 74.8%
- viability, T/C [24]: 14.2%
- viability, T/C [25]: 95.4%
- viability, T/C [26]: 90.6%
- viability, T/C [27]: 85.6%
- viability, T/C [28]: 94.5%
- viability, T/C [29]: 66.2%
- viability, T/C [30]: 14.5%
- viability, T/C [31]: 95.6%
- viability, T/C [32]: 89.1%
- viability, T/C [33]: 79.2%
- viability, T/C [34]: 94.1%
- viability, T/C [35]: 55%
- viability, T/C [36]: 12.1%
- viability, T/C [37]: 85.3%
- viability, T/C [38]: 88.3%
- viability, T/C [39]: 78.7%
- viability, T/C [40]: 67.2%
- viability, T/C [41]: 61.4%
- viability, T/C [42]: 11%

Structure (SMILES): CNC(=O)c1ccc(N2C(=S)N(c3ccc(C#N)c(C(F)(F)F)c3)C(=O)C2(C)C)cc1F
- viability, T/C (compound 0.0316 µM): 98% [middle of 4 runs]
- viability, T/C (compound 0.1 µM): 97% [middle of 4 runs]
- viability, T/C (compound 0.316 µM): 97% [middle of 4 runs]
- viability, T/C (compound 1 µM): 102% [middle of 4 runs]
- viability, T/C (compound 3.16 µM): 93.3% [middle of 4 runs]
- viability, T/C (compound 10 µM): 72.8% [middle of 4 runs]
- IC50 (curve of compound): > 10 µM

Structure (SMILES): CC1(C)CCC(Nc2ncc(C(F)(F)F)c(-c3c[nH]c4c(P(C)(C)=O)c(C#N)ccc34)n2)CN1 (centres undefined)
- viability, T/C (compound 0.0316 µM): 12% [middle of 4 runs]
- viability, T/C (compound 0.1 µM): 10.6% [middle of 4 runs]
- viability, T/C (compound 0.316 µM): 9.01% [middle of 4 runs]
- viability, T/C (compound 1 µM): 7.86% [middle of 4 runs]
- viability, T/C (compound 3.16 µM): 8.98% [middle of 4 runs]
- viability, T/C (compound 10 µM): 1.71% [middle of 4 runs]
- IC50 (curve of compound): < 0.0316 µM
